For assay [1], the system named is U87MG human glioma cell line. In words: MTT cell viability assay, U87MG. It is filed as cell-based. To be noted: for IC50: Homo sapiens, U-87 MG, individual drug, mean ± SD, no unit in table, test concentrations given in μM, read-out: Inhibitory Concentration at 50% (IC50) U87MG Cells; for IC50 / cell viability / anti-proliferative effect (MTT), in words: 24 hours; for cell viability / anti-proliferative effect (MTT), in words: U87MG. The method, then:
Cell lines and culture conditions. A human glioma cell line, U87MG, a rat glioma cell line, C6, and normal HEK293T (Human Embryonic Kidney) cells were obtained from National Centre for Cell Science (NCCS), Pune, India. The cells were sub-cultured in Dulbecco's Modified Eagle's Medium (DMEM) supplemented with 10% FBS at 5% CO2 and 37° C. At 85% confluence, the cells were harvested using 0.25% trypsin and seeded in 25 cm^2 flasks, 96 well, and 6-well plates, according to the experiment being performed. The cells were allowed to attach 70% to the surface prior to treatment. A stock solution of all the drugs (10 mg/ml) was made in a vehicle and diluted to the required concentrations. Suspensions were aspirated 10 times before treatment. Cells treated with vehicle control were used as a control.
Cell viability assay. U87MG and C6 cells (5×10^3 cells/ml) were seeded in 96-well plates and exposed to different individual-drug treated groups with varying concentrations (0, 10, 40, 80, 120, and 160 μM) for a period of 24 hours, whereas HEK293T cells (5×10^3 cells/ml) were seeded at the inhibitory concentration (IC) at 50% of drugs, either alone or in combination. The individual-treated groups include Group I: untreated control glioma cells; Group II: TMZ-treated glioma cells; Group III: MET-treated glioma cells; and Group IV: EGCG-treated glioma cells.
After a 24 hour treatment period, the cells were allowed to react with MTT for 4 hours in dark at 37° C. At the end of the incubation period, the dark purple formazan crystals formed were solubilized with DMSO and the absorbance was measured spectrophotometrically at 595 nm (Molecular Devices Spectra-Max M5, USA). The experiments were repeated at least three times. To determine the cell viability, the percentage of viability was calculated as follows:
% viability=[(Optical density {OD} of treated cells−OD of Blank)/(OD of control−OD of blank)]×100.
Calculation of IC50 value. The IC50 of a drug was determined using y=m(x)+c equation (where: ‘y’ & ‘x’ are the respective coordinates of y & x-axis, ‘m’ is the slope and ‘c’ is the constant) derived from the trendlines of each scattered plots MMT assay. […] The IC50 and IC25 were also calculated for the dual combinations. The IC50 for the triple combination was calculated by keeping the IC25 of the dual-combination constant, and the third drug was used in varying concentrations (0, 10, 40, 80, 120, and 160 μM) (Table 1).
Combination index of drugs. According to the Chou-Talalay method, The statistical Combination Index (CI) of the drugs was performed according to the Chou-Talay method (Ma et al, Stem Cell Reports, 2017 9(6):1948-1960) to determine whether various drug combinations were synergistic, additive, or antagonistic, as shown in Table 1. This was performed for Groups V-IX using the following formula:
Combination index (CI) of Drugs 1 & 2=(IC50 of drug-1 in combination/IC50 of drug-1 individually)+(IC50 of drug-2 in combination/IC50 of drug-2 individually).
In general terms: Tetrazolium assays rely on reduction of a dye to a coloured formazan, in cell work by metabolically active cells.

For the next assay, the system named is U87MG human glioma cells. In words: AO/EtBr dual staining for apoptosis, U87MG. It is filed as cell-based. Conditions: respective IC50 concentrations. An excerpt:
(§1) AO/EtBr are fluorescent nuclear stains, which distinguish between live and dead cells based on their membrane integrity. AO intercalates in the DNA of live cells imparting green shade to the nucleus as an indica-tor of viability. In the case of the dead cell, EtBr intercalates along with AO, resulting in an orange appearance, with an increased orange appearance corresponding to a concomitant increase in the number of dead cells and vice versa.
(§2) After the treatment period, monolayer cells were stained with AO/EtBr stain (1 mg/ml) and were visualized immediately under a fluorescence microscope (Axiovert, Carl Zeiss) at 20× magnification.

A further assay relates to C6 glioma cells. In words: AO/EtBr dual staining for apoptosis, C6. Type of assay: cell-based, rat. To be noted: respective IC50 concentrations.
Source text: as §1, §2

The subject of assay [2] is intracellular ROS in C6 cells. In words: ROS activity by DCF-DA, C6. Type of assay: cell-based, rat. To be noted: IC50 concentrations, vs control. On the procedure: Determination of ROS activity by DCF-DA. U87MG and C6 cells were seeded at 5×10^3 cells/well in 96 well plates. […] After the treatment period, monolayer cells were stained with DCF-DA stain, and the absorbance was read at 530 nm spectrophotometrically (Molecular Devices Spectra-Max M5, USA). This method is commonly used in ROS investigations and is based on the application of H2DCFDA (acetylated form of DCF), which is consecutively deacetylated inside the cells by intracellular esterase.

In assay [3] the test system is human pancreatic cancer (PANC1) cells. Put plainly: MTT cell viability assay, PANC1. It is filed as cell-based. Conditions: 24 hours. On the procedure:
Cell lines and culture conditions: A human pancreatic cancer cell line PANC1 and human colon cancer cell line HCT116 were obtained from National Centre for Cell Science (NCCS), Pune, India. The PANC1 cells were sub-cultured in Dulbecco's Modified Eagle's Medium (DMEM) supplemented with 10% FBS at 5% C02 and 37° C. The HCT116 cells were sub-cultured in McCoy's 5A media supplemented with 10% FBS at 5% CO2 and 37° C. […] The cells were allowed to attach 70% to the surface prior to treatment. […] Suspensions were aspirated 10 times before treatment. Cells treated with vehicle control were used as a control. Cell viability assay: PANC1 and HCT116 cells ([…] cells/ml) were seeded in 96-well plates and exposed to different individual-drug treated groups with varying concentrations (0, 20, 40, 60, 80, 100, 120, 140, 160, 180 and 200 μM) for a period of 24 hours. The individual-treated groups include Group I: 5 Fluorouracil (5FU)-treated PANC1 and HCT116 cells; Group II: MET-treated PANC1 and HCT116 cells; Group III: EGCG-treated PANC1 and HCT116 cells and Group IV: 5FU+[…] PANC1 and HCT116 cells.

With `O=C(O[C@@H]1Cc2c(O)cc(O)cc2O[C@@H]1c1cc(O)c(O)c(O)c1)c1cc(O)c(O)c(O)c1` [EGCG, [(2R,3R)-5,7-dihydroxy-2-(3,4,5-trihydroxyphenyl)-3,4-dihydro-2H-chromen-3-yl] 3,4,5-trihydroxybenzoate], in assay [1], the IC50 was 94 ± 1.39 µM. Further, the figures for the “cell viability / anti-proliferative effect (MTT), in words” value in assay [1] and in assay [1] (listed as ECGC) were “reduction in cell viability in a dose-dependent fashion” and “did not result in significant inhibitory effects”, respectively. Moreover, the “apoptotic cell death (AO/EtBr)” value with U87MG human glioma cells is on record as “did not produce any significant apoptotic activity”; with U87MG human glioma cells (listed as E), “no apoptosis”; with C6 glioma cells it was “did not produce any significant apoptotic activity”; in the assay on C6 glioma cells (listed as E), “no apoptosis”. Also, in assay [2], the “intracellular ROS levels (DCF-DA fluorescence intensity)” value is on record as “increased significantly”. Moreover, in assay [3], the “cell viability (MTT), in words” value is reported as “reduction in cell viability in a dose-dependent fashion”.

Consider `CN(C)C(=N)N=C(N)N.Cl` [MET, 3-(diaminomethylidene)-1,1-dimethylguanidine; hydrochloride], for which the IC50 in assay [1] was found to be 80 ± 1.19 µM. In assay [1], the “cell viability / anti-proliferative effect (MTT), in words” value is “reduction in cell viability in a dose-dependent fashion”. In addition, the “IC25 U87MG” value in assay [1] (as used in the triple combination for CI) is 34.03 µM. Moreover, the “apoptotic cell death (AO/EtBr)” value is recorded as “did not produce any significant apoptotic activity” in the assay on U87MG human glioma cells (hydrochloride); “no apoptosis but loss of cell membrane integrity” in the assay on U87MG human glioma cells (listed as M, hydrochloride); “did not produce any significant apoptotic activity” in the assay with C6 glioma cells (hydrochloride); “no apoptosis but loss of cell membrane integrity” in the assay on C6 glioma cells (listed as M, hydrochloride). Moreover, the “intracellular ROS levels (DCF-DA fluorescence intensity)” value in assay [2] is reported as “did not show much effect on ROS levels”. In addition, in assay [3], the “cell viability (MTT), in words” value is on record as “reduction in cell viability in a dose-dependent fashion”.

The record behind these values is patent US20250275938A1, “COMPOSITIONS AND METHODS FOR TREATMENT OF CANCER” (SCIROSBIO (FZC), priority 2022, published 2025).
